Measurements as given in patent US20170096443A1, “PLATINUM(IV) COMPOUNDS AND METHODS OF MAKING AND USING SAME” (UNIVERSITY OF GEORGIA RESEARCH FOUNDATION, INC., priority 2014, published 2017).

Experiments:
PC3 cells = experiment: MTT cytotoxicity assay in PC3 cells; type: cell-based, Human; details: 72 hours incubation, read-out: IC50 in prostate cancer cells, PC3
Method: (§1) Cisplatin and ADIBO-COOH were used as controls. […] Cell Lines and Cell Culture. […] Cytotoxicity Analysis of Platin-CLK by MTT Assay. […] The media was changed and increasing concentrations of each compound was added. […] Final working solutions were prepared in culture media (RPMI) by keeping total DMSO percentage <1%. These were then incubated for 72 hours. […] The IC50 values were reported at ±99% confidence intervals.

DU145 cells = experiment: MTT cytotoxicity assay in DU145 cells; type: cell-based, Human; details: 72 hours incubation, read-out: IC50 in prostate cancer cells, DU145
Method: as §1

Row | SMILES | IC50 (PC3 cells) [µM] | IC50 (DU145 cells) [µM]
1 | O=C(O)CCC(=O)NCCC(=O)N1Cc2ccccc2C#Cc2ccccc21 [ADIBO-COOH] | > 200 | 284 ± 72
2 | N.N.[Cl][Pt][Cl] [Cisplatin, Cis-diamminedichloroplatinum(II)] | 12 ± 2 | 6 ± 0.9
